Assays:
Assay type in all cases: physicochemical
[1] = Ultraviolet-visible light spectrum (maximum absorbance wavelength)
Method: Method for Obtaining an Ultraviolet-Visible Light Spectrum
Ultraviolet-visible (UV-Vis) Light spectra are obtained and recorded on an Agilent 8453 spectrophotometer using ChemStation software (Agilent Technologies, Inc., Santa Clara, Calif.).
(§1) The compounds were analyzed at 298° K according to the Method for Obtaining Ultraviolet-Visible Light Spectrum (30 μM acetonitrile) to obtain the maximum absorbance wavelength (λabs,max), Method for Obtaining Fluorescence Emission Spectrum (30 μM acetonitrile) to obtain the maximum emission wavelength (λem,max) and Method for Determining Quantum Yield (ΦF) (30 μM acetonitrile) at the concentration, in the solvent, and with the counter ion indicated in Table 1. The compounds included hydrogen at each R group that is not otherwise specified.
(§2) Compounds 6, 7, 9, 11-14 and 21 were analyzed according to: the Method for Obtaining Ultraviolet-Visible Light Spectrum to obtain the maximum absorbance wavelength (λabs,max), the Method for Obtaining Fluorescence Emission Spectrum to obtain the maximum emission wavelength (λem,max), and the Method for Determining Quantum Yield (ΦF) in the solvent and with the counter ion indicated in Table 3.

[2] = Fluorescence emission spectrum (maximum emission wavelength)
Method: Method for Obtaining a Fluorescence Emission Spectrum
Fluorescence emission spectra are obtained and recorded on a QM-4-CW Spectrofluorometer using FeliX32 software (Photon Technology International, Inc., Birmingham, N.J.).
as §1, §2

[3] = Fluorescence emission in a series of organic solvents; settings: 30 μM, excited at 360 nm
Method: Compound 6 was placed in the series of organic solvents at a concentration of 30 μM, excited with radiation at 360 nm, and monitored for fluorescence emission. The organic solvent, intensity of fluorescence emission (ET), and maximum emission wavelength in nm and cm^−1, are set forth below in Table 2.

[4] = Dimethylsulfoxide (ET(30) 45.1)

Structure (SMILES): CCN(CC)c1ccc(-c2c3cccc[n+]3cn2-c2ccc(OC)cc2)cc1.[Cl-] [Compound 6, 1-(4-(diethylamino)phenyl)-2-(4-methoxyphenyl)-2H-imidazo[1,5-a]pyridin-4-ium chloride]
- λabs, max Abs ([1]; H2O (pH not given), 30 μM): 350 nm
- λabs, max Abs ([1]; H2O pH = 2.5, 30 μM): 350 nm
- λabs, max Abs ([1]; MeCN + 13.8 uL TFA, 30 μM): 350 nm
- λabs, max Abs ([1]; MeCN, 30 μM): 350 nm
- λem, max Em ([2]; H2O (pH not given), 30 μM): 580 nm
- λem, max Em ([2]; H2O pH = 2.5, 30 μM): 400 nm
- λem, max Em ([2]; MeCN + 13.8 uL TFA, 30 μM): 405 nm
- λem, max Em ([2]; MeCN, 30 μM): 565 nm
- maximum emission Wavelength ([3]; Acetonitrile (ET(30) 45.6)): 559 nm
- maximum emission wavenumber ([3]; Acetonitrile (ET(30) 45.6)): 17889.09 cm⁻¹
- maximum emission Wavelength ([3]; Benzene (ET(30) 34.3)): 567 nm
- maximum emission wavenumber ([3]; Benzene (ET(30) 34.3)): 17636.68 cm⁻¹
- maximum emission Wavelength ([3]; Chloroform (ET(30) 39.1)): 533 nm
- maximum emission wavenumber ([3]; Chloroform (ET(30) 39.1)): 18761.73 cm⁻¹
- maximum emission Wavelength ([3]; Dichloromethane (ET(30) 40.7)): 535 nm
- maximum emission wavenumber ([3]; Dichloromethane (ET(30) 40.7)): 18691.59 cm⁻¹
- maximum emission Wavelength [3, 4]: 567 nm
- maximum emission wavenumber [3, 4]: 17636.68 cm⁻¹
- maximum emission Wavelength ([3]; Hexane (ET(30) 31)): 561 nm
- maximum emission wavenumber ([3]; Hexane (ET(30) 31)): 17825.31 cm⁻¹
- maximum emission Wavelength ([3]; Tetrahydrofuran (ET(30) 37.4)): 541 nm
- maximum emission wavenumber ([3]; Tetrahydrofuran (ET(30) 37.4)): 18484.29 cm⁻¹
- maximum emission Wavelength ([3]; Toluene (ET(30) 33.9)): 568 nm
- maximum emission wavenumber ([3]; Toluene (ET(30) 33.9)): 17605.63 cm⁻¹
- maximum emission Wavelength ([3]; Water (ET(30) 63.1)): 576 nm
- maximum emission wavenumber ([3]; Water (ET(30) 63.1)): 17361.11 cm⁻¹
